pIC50: −log10 of the molar value.
test system: P. falciparum 3D7 growth, pLDH absorbance; experiment: blood-stage malaria parasite growth potency – strain 3D7, dose response (AID 2305)

| SMILES | pIC50 |
| --- | --- |
| CCCNCc1ccc(-c2ccc(CN(CCOC)C(=O)Cc3cccnc3)cc2)nc1 | 6.09 |
| Nc1ccnc2ccc(NC(=O)CCCCCc3ccccc3)cc12 | 6.07 |
| CCN(CC)CCCC(C)Nc1c(-c2ccc(C)cc2)cnc2ccccc12 (stereo not given) | 6.70 |
| COCCNCc1ccc(-c2ccccc2CNC2CCN(Cc3ccccc3)CC2)cc1 | 6.01 |
| CC(=O)N(C)C1CCN(Cc2ccc(-c3cccc(-c4nc5ccc(F)cc5[nH]4)c3)cc2)C1 (stereo not given) | 6.22 |
| c1ccc2[nH]c(-c3ccc(-c4ccc(CN5CCN(CCN6CCOCC6)CC5)cc4)cc3)nc2c1 | 6.80 |
| NC(N)=NN=Cc1c2ccc(Cl)cc2c(Cl)c2ccc(Cl)cc12 | 6.02 |
| COc1cc2nc(C)nc(Nc3cccc(Br)c3)c2cc1OC | 6.44 |
| Cc1cccc2[nH]c(-c3ccc(-c4ccc(NC(=O)NCc5ccccc5)cc4)s3)nc12 | 6.11 |
| Cc1cc(N[C@@H](Cc2ccccc2)C(=O)NCCc2ccccc2)nc(NCCc2cccs2)n1 | 6.15 |
| Cc1cc(NCCc2ccccc2)nc(/N=C(\N)Nc2cccc(F)c2)n1 | 6.05 |
| Cc1cc(N2CCCC2)nc(Nc2ccc(NC(=O)C(C)(C)C)cc2)n1 | 5.97 |
| O=C(/C=C/c1ccc(Cl)c(Cl)c1)NCCCCCN1CCC(NC(=O)Nc2cccc(Cl)c2F)CC1 | 6.42 |
| Cc1ccc2c(OCCN3CCC(Cc4ccc5c(c4)NC(=O)CO5)CC3)cc(F)cc2n1 | 6.12 |
| COc1ccc2nccc([C@@H](O)CN3CCC(NCc4nc5cc(F)c(F)cc5[nH]4)CC3)c2c1 | 6.28 |
| Cc1cc(-c2ccc(CNCCc3cccs3)cc2)ccc1S(=O)(=O)NCc1ccccc1 | 5.94 |
| c1cncc(-c2cc(N3CCCCC3)nc(-c3ccncc3)n2)c1 | 6.11 |
| COc1ccc(NC(=O)Nc2cc(C)nc3cccnc23)cc1Cn1ccnc1 | 6.13 |
| COc1ccc(C(=O)Nc2cc(Br)c3c(c2)CNCC3)cc1C(F)(F)F | 5.97 |
| Cc1cc(NC(=O)c2ccco2)ccc1OC1CCN(Cc2ccc(F)cc2)C1 (stereo not given) | 6.19 |
| C=CCC(C)n1ncc2c3c(N)nc(N)nc3ccc21 (stereo not given) | 7.30 |
| CN1CCN(CCNc2c3ccccc3nc3ccc4ccccc4c23)CC1 | 6.28 |
| NC1=NC2(CCCCC2)N(Cc2ccc(Cl)c(Cl)c2)C(N)=N1 | 6.21 |
| OC(COCc1ccc(-c2ccccc2)cc1)CN1CCCCC1 (stereo not given) | 6.57 |
| O=C(Cc1ccccc1)NC(CCN1CCC(NC(=O)c2ccc(Cl)cc2)CC1)c1ccc(Cl)c(Cl)c1 (stereo not given) | 6.04 |

| SMILES | pIC50 |
| --- | --- |
| COc1cc(CNC[C@@H](O)[C@H](Cc2ccccc2)NC(=O)c2cc(OC(C)C)cc(N3CCCS3(=O)=O)c2)cc(OC)c1 | 6.10 |
| CCN(CC)CCCC(C)Nc1cc(C)nc2cc(Cl)ccc12 (stereo not given) | 6.14 |
| Cc1c(CNCCN2CCCCC2)c(C(=O)O)c(C)n1Cc1ccc(Cl)cc1 | 6.38 |
| O=c1cc(NCCC(CNCc2cc3ccccc3o2)NCc2cc(Br)cc(Br)c2)[nH]c2ccccc12 (stereo not given) | 5.92 |
| CN1CCC(NC(=O)c2cccc(Nc3cc(Nc4cccc(Br)c4)ncn3)c2)CC1 | 6.00 |
| NC(Cc1ccc(Cl)cc1)=NCCN1CCCCCC1 | 6.13 |
| Cc1nc2nc(N)nc(N)c2c(C)c1Cc1cccs1 | 6.11 |
| CC(C)N1CCN(C(CN2CCN(CCCOc3ccc(-c4ccccc4)cc3)CC2)c2ccc(F)cc2)CC1 (stereo not given) | 6.17 |
| Cc1c(C(=O)N2CCc3cc4nccc(N5CCN6CCC[C@H]6C5)c4cc32)cnn1-c1ccc(C#N)cc1 | 6.00 |
| c1ccc(CN2CCC(Nc3ccc(-c4cn[nH]c4-c4ccccn4)nc3)CC2)cc1 | 6.10 |
| Cc1ccc(C)c(Cn2c(N3CCC(C(=O)NCc4cccs4)CC3)nc3ccccc32)c1 | 6.03 |
| O=C(Nc1ccccc1)Nc1ccc(-c2cccc(-c3nc4ccc(C(F)(F)F)cc4[nH]3)c2)cc1 | 6.14 |
| Oc1ccc(-c2cc(-c3ccc(O)cc3)nc(-c3ccccc3)n2)cc1 | 6.11 |
| COCC(=O)Nc1nc2ccccc2[nH]1 | 6.52 |
| c1nc2nc3c(c(Nc4ccc5c(c4)CCC5)n2n1)CCC3 | 6.04 |
| CNC(=O)c1[nH]c(-c2ccccc2)nc1NC(C)=O | 6.82 |
| CCNc1cc(C)nc(Nc2ccc(NC(=O)c3ccccc3Cl)cc2)n1 | 6.00 |
| COc1ccc(NC(=O)c2csc(-c3cc(NC(=O)c4ccnc(N5CCCC5)c4)ccc3C)c2)cc1N1CCN(C)CC1 | 6.18 |
| Cc1cccc2[nH]c(-c3ccc(-c4cccc(NC(=O)CN5CCN(C)CC5)c4)s3)nc12 | 6.08 |
| O=S(=O)(NCCN1CCCC1)c1ccc(-c2ccc(CNCc3ccsc3)cc2)cc1 | 6.07 |
| Cc1cnc(C(=O)Nc2ccc(-c3cccc(-c4nc5ccccc5[nH]4)c3)cc2)cn1 | 6.08 |
| O=C(/C=C/c1ccc(Cl)c(Cl)c1)NCCCCCN1CCC(NC(=O)Nc2ccc(Br)cc2)CC1 | 6.24 |
| COc1ccc(-c2cc3ncn(CC(=O)N4CCN(c5cccc(OC)c5)CC4)c(=O)c3s2)cc1 | 5.97 |
| Cc1cccc2[nH]c(-c3cccc(-c4ccc(NC(=O)c5cnc[nH]5)cc4)c3)nc12 | 6.14 |
| Cc1[nH]c2ccc(O)cc2c1C1CCN(CC2CCC(NC(=O)/C=C/c3c(Cl)cccc3Cl)CC2)CC1 (stereo not given) | 6.09 |

Source: PubChem BioAssay AID2305 (GlaxoSmithKline (GSK), 2010)
